Earlier results, collected in patent US20090117559A1, “Methods for Determining Probability of an Adverse or Favorable Reaction to a Niacin Receptor Agonist” (priority 2005, published 2009).

Key:
[1] = post administration of niacin by injection

patients who cease taking niacin treatment within days after initiating therapy (human, in vivo): 30-40% | subjects experiencing flushing in response to nicotinic acid therapy (unsegmented (general) population, Shepherd et al. 2005): 70-80% | time after which the flushing reaction declines significantly [1]: about 30 minutes | time at which the flushing reaction peaks [1]: about 3 minutes
SMILES: O=C(O)c1cccnc1 [niacin, nicotinic acid]
